According to patent US20240139220A1, “TREATMENT OF HPV INFECTION” (priority 2022, published 2024):
In brackets after ≈: the same amount, converted by molar mass. Like-named read-outs stand apart in the source and are kept apart here.

Assays:
Format in all cases: physicochemical
[1] = Hygroscicity by Dynamic Vapor Sorption (DVS) at 25° C.
Experimental: Hygroscopicity was investigated by DVS at 25° C., using the following method: […]

[2] = Bulk stability, accelerated storage for one week (HPLC, XRPD)
Experimental: Bulk stability: Accelerated stability experiments were conducted at 25° C./92% RH and 40° C./75% RH in an open container, 60° C. in a tight container for one week.
Samples were characterized by XRPD and HPLC and inspected for color change.
Accelerated stability experiments were conducted at 25° C./92% RH in an open container, at 40° C./75% RH in an open container, and at 60° C. in a tight container for one week.

[3] = Solubility in buffers, water and simulated vaginal fluid at 37° C.
Experimental: About 4 mg of Compound I Pattern 1 was added into 2 mL of buffer solution.
(§1) Solubility was tested in five media, pH 3.0 citrate buffer, pH 4.5 acetate buffer, pH 6.8 phosphate buffer, water, simulated vaginal fluid (pH 4.2) at 37° C. for 0.5 h and 2 h.
The salt amount used is equivalent to 10 mg anhydrous free base. […] The obtained clear solutions were analyzed by pH meter for pH, and solubility was determined by observation.
as §1

[4] = Approximate solubility in solvents at 25° C. and 50° C. by visual observation; conditions: thermodynamic from solid, read-out: Solubility
Experimental: The maximum volume of each solvent added was 1 mL. Approximate solubility was determined by visual observation.
Maximum volume of each solvent added was 1 mL. Approximate solubility was determined by visual observation.

[5] = 25° C., 92% RH, open container, one week
[6] = 40° C., 75% RH, open container, one week
[7] = 60° C., tight container, one week
[8] = Simulated vaginal fluid (pH adjusted with 0.2N NaOH)
[9] = cycle of 40-0-95-0-45% relative humidity

CCOC(=O)C(C)NP(=O)(COCCn1cnc2c(OC)nc(N)nc21)OCc1ccccc1.CCOC(=O)C(C)NP(=O)(COCCn1cnc2c(OC)nc(N)nc21)OCc1ccccc1.O=C(O)C=CC(=O)O (mixture of isomers) [Compound I Hemifumarate Pattern 1]
D. (%) Cycle 1 (Desorption) ([1]; 0% RH, 25° C.): 0.13%
D. (%) Cycle 2 (Desorption) ([1]; 0% RH, 25° C.): 0.00%
S. (%) Cycle 1 (Sorption) ([1]; 0% RH, 25° C.): 0.13%
S. (%) Cycle 2 (Sorption) ([1]; 0% RH, 25° C.): 0.00%
D. (%) Cycle 1 (Desorption) ([1]; 10% RH, 25° C.): 0.36%
D. (%) Cycle 2 (Desorption) ([1]; 10% RH, 25° C.): 0.23%
S. (%) Cycle 1 (Sorption) ([1]; 10% RH, 25° C.): 0.34%
S. (%) Cycle 2 (Sorption) ([1]; 10% RH, 25° C.): 0.20%
D. (%) Cycle 1 (Desorption) ([1]; 20% RH, 25° C.): 0.56%
D. (%) Cycle 2 (Desorption) ([1]; 20% RH, 25° C.): 0.44%
S. (%) Cycle 1 (Sorption) ([1]; 20% RH, 25° C.): 0.53%
S. (%) Cycle 2 (Sorption) ([1]; 20% RH, 25° C.): 0.40%
D. (%) Cycle 1 (Desorption) ([1]; 30% RH, 25° C.): 0.79%
D. (%) Cycle 2 (Desorption) ([1]; 30% RH, 25° C.): 0.68%
S. (%) Cycle 1 (Sorption) ([1]; 30% RH, 25° C.): 0.73%
S. (%) Cycle 2 (Sorption) ([1]; 30% RH, 25° C.): 0.61%
D. (%) Cycle 1 (Desorption) ([1]; 40% RH, 25° C.): 1.04%
D. (%) Cycle 2 (Desorption) ([1]; 40% RH, 25° C.): 0.94%
S. (%) Cycle 1 (Sorption) ([1]; 40% RH, 25° C.): 0.96%
S. (%) Cycle 2 (Sorption) ([1]; 40% RH, 25° C.): 0.87%
D. (%) Cycle 2 (Desorption) ([1]; 50% RH, 25° C.): 1.26%
S. (%) Cycle 1 (Sorption) ([1]; 50% RH, 25° C.): 1.22%
D. (%) Cycle 2 (Desorption) ([1]; 60% RH, 25° C.): 1.68%
S. (%) Cycle 1 (Sorption) ([1]; 60% RH, 25° C.): 1.57%
D. (%) Cycle 2 (Desorption) ([1]; 70% RH, 25° C.): 2.25%
S. (%) Cycle 1 (Sorption) ([1]; 70% RH, 25° C.): 2.04%
D. (%) Cycle 2 (Desorption) ([1]; 80% RH, 25° C.): 3.14%
S. (%) Cycle 1 (Sorption) ([1]; 80% RH, 25° C.): 2.80%
D. (%) Cycle 2 (Desorption) ([1]; 90% RH, 25° C.): 4.84%
S. (%) Cycle 1 (Sorption) ([1]; 90% RH, 25° C.): 4.54%
D. (%) Cycle 2 (Desorption) ([1]; 95% RH, 25° C.): 6.87%
S. (%) Cycle 1 (Sorption) ([1]; 95% RH, 25° C.): 6.87%
XRPD after DVS test ([1]; cycle 40-0-95-0-40% RH, 25° C.): No form change,
Water uptake ([1]; up to 95% RH, DVS 25° C.): ~6.9%
XRPD ([2]; 25° C., 84% RH, open container, 2 days): No change
HPLC (chemical purity) [2, 5]: 97.0%
XRPD [2, 5]: No change
HPLC (chemical purity) [2, 6]: 90.9%
XRPD [2, 6]: No change
Degradation compared ([2]; 40° C./75% RH and 60° C. for one week): tends to degrade more than Compound I monofumarate Pattern 1
HPLC (chemical purity) [2, 7]: 82.3%
XRPD [2, 7]: No change
HPLC (chemical purity) ([2]; Initial): 97.8%
Solubility 0.5 hrs [3, 8]: >2 mg/mL
Solubility 2 hrs [3, 8]: >2 mg/mL
pH at 2 hrs [3, 8]: (5.30)
Solubility 0.5 hrs ([3]; Water): >2 mg/mL
Solubility 2 hrs ([3]; Water): >2 mg/mL
pH at 2 hrs ([3]; Water): (3.38)
Solubility 0.5 hrs ([3]; pH 3.0 100 mM citrate buffer): >2 mg/mL
Solubility 2 hrs ([3]; pH 3.0 100 mM citrate buffer): >2 mg/mL
pH at 2 hrs ([3]; pH 3.0 100 mM citrate buffer): (3.07)
Solubility 0.5 hrs ([3]; pH 4.5 50 mM acetate buffer): >2 mg/mL
Solubility 2 hrs ([3]; pH 4.5 50 mM acetate buffer): >2 mg/mL
pH at 2 hrs ([3]; pH 4.5 50 mM acetate buffer): (4.45)
Solubility 0.5 hrs ([3]; pH 6.8 50 mM phosphate buffer): >2 mg/mL
Solubility 2 hrs ([3]; pH 6.8 50 mM phosphate buffer): >2 mg/mL
pH at 2 hrs ([3]; pH 6.8 50 mM phosphate buffer): (6.68)

CCOC(=O)[C@H](C)N[P@](=O)(COCCn1cnc2c(OC)nc(N)nc21)OCc1ccccc1 (single isomer, unassigned) [Compound III, monofumarate]
Fold increase of retained water content versus Compound II [1, 9]: 40 fold
XRPD pattern after humidity cycle [1, 9]: lose one of the peaks
Water content retained ([1]; exposed to a cycle of 40-0-95-0-45% relative humidity): about 10%

CCOC(=O)[C@H](C)NP(=O)(COCCn1cnc2c(OC)nc(N)nc21)OCc1ccccc1 (stereo partly drawn) [Compound I, ethyl(((2-(2-amino-6-methoxy-9H-purin-9-yl)ethoxy)methylxbenzyloxy)-phosphoryl)-L-alaninate]
Solubility ([4]; organic solvent or mixture, Acetone, 25° C.): > 100 mg/mL
Solubility ([4]; organic solvent or mixture, Acetone, 50° C.): > 500 mg/mL
Solubility ([4]; organic solvent or mixture, Acetonitrile (ACN), 25° C.): > 100 mg/mL
Solubility ([4]; organic solvent or mixture, Acetonitrile (ACN), 50° C.): > 500 mg/mL
Solubility ([4]; organic solvent or mixture, Dichloromethane (DCM), 25° C.): > 100 mg/mL
Solubility ([4]; organic solvent or mixture, Dichloromethane (DCM), 50° C.): > 500 mg/mL
Solubility ([4]; organic solvent or mixture, Ethanol (EtOH), 25° C.): > 100 mg/mL
Solubility ([4]; organic solvent or mixture, Ethanol (EtOH), 50° C.): > 500 mg/mL
Solubility ([4]; organic solvent or mixture, Ethyl acetate (EA), 25° C.): > 100 mg/mL
Solubility ([4]; organic solvent or mixture, Ethyl acetate (EA), 50° C.): > 500 mg/mL
Solubility ([4]; organic solvent or mixture, Heptanes, 25° C.): < 2 mg/mL
Solubility ([4]; organic solvent or mixture, Heptanes, 50° C.): < 10 mg/mL
Solubility ([4]; organic solvent or mixture, Isopropanol (IPA), 25° C.): > 100 mg/mL
Solubility ([4]; organic solvent or mixture, Isopropanol (IPA), 50° C.): > 500 mg/mL
Solubility ([4]; organic solvent or mixture, Isopropyl acetate (IPAc), 25° C.): > 100 mg/mL
Solubility ([4]; organic solvent or mixture, Isopropyl acetate (IPAc), 50° C.): > 500 mg/mL
Solubility ([4]; organic solvent or mixture, Methanol (MeOH), 25° C.): > 100 mg/mL
Solubility ([4]; organic solvent or mixture, Methanol (MeOH), 50° C.): > 500 mg/mL
Solubility ([4]; organic solvent or mixture, Methyl ethyl ketone (MEK), 25° C.): > 100 mg/mL
Solubility ([4]; organic solvent or mixture, Methyl ethyl ketone (MEK), 50° C.): > 500 mg/mL
Solubility ([4]; organic solvent or mixture, Methyl t-butyl ether (MTBE), 25° C.): < 2 mg/mL
Solubility ([4]; organic solvent or mixture, Methyl t-butyl ether (MTBE), 50° C.): < 10 mg/mL
Solubility ([4]; organic solvent or mixture, Tetrahydrofuran (THF), 25° C.): > 100 mg/mL
Solubility ([4]; organic solvent or mixture, Tetrahydrofuran (THF), 50° C.): 167 to 250 mg/mL (≈ 339 to 508 mM)
Solubility ([4]; Water, 25° C.): 20 to 25 mg/mL (≈ 40.6 to 50.8 mM)
Solubility ([4]; Water, 50° C.): 25 to 27 mg/mL (≈ 50.8 to 54.8 mM)
